Laboratory results reported in patent US20240294499A1, “TARGETED PROTEIN DEGRADATION USING BIFUNCTIONAL COMPOUNDS THAT BIND UBIQUITIN LIGASE AND TARGET MCL-1 PROTEIN” (Captor Therapeutics S.A., priority 2021, published 2024).

Tests used:
[1] = target: [MCL-1]-[compound of formula (I)]-[CRBN/DDB1] complex (Homo sapiens, UniProt Q07820+Q96SW2); test: AlphaLISA dose response ternary complex formation assay; assay type: binding; conditions: read-out: AlphaLISA dose response Average pEC50 by molecule (converted)
Chain of [MCL-1]-[compound of formula (I)]-[CRBN/DDB1] complex (Q07820 whole entry): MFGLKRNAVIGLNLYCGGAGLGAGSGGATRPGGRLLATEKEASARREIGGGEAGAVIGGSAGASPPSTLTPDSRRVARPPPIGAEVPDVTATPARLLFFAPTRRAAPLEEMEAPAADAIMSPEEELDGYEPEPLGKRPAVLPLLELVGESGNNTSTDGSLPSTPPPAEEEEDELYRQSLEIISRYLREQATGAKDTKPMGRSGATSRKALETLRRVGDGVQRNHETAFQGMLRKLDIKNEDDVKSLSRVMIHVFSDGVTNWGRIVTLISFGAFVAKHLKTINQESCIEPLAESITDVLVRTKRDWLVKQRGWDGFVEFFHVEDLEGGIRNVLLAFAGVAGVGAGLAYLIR
Chain of [MCL-1]-[compound of formula (I)]-[CRBN/DDB1] complex (Q96SW2 whole entry): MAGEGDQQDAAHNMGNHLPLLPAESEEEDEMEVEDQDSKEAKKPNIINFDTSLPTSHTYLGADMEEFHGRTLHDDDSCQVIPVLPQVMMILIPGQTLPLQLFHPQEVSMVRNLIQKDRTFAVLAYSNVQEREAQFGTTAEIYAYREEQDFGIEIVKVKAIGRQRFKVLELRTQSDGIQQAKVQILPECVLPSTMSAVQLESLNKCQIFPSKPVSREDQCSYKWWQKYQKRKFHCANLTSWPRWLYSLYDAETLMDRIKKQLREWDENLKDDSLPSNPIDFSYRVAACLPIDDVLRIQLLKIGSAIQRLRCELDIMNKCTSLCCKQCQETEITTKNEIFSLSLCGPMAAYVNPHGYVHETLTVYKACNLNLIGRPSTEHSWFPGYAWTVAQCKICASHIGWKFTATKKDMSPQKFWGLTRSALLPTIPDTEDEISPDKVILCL
Chain of [MCL-1]-[compound of formula (I)]-[CRBN/DDB1] complex (Q16531 whole entry partner): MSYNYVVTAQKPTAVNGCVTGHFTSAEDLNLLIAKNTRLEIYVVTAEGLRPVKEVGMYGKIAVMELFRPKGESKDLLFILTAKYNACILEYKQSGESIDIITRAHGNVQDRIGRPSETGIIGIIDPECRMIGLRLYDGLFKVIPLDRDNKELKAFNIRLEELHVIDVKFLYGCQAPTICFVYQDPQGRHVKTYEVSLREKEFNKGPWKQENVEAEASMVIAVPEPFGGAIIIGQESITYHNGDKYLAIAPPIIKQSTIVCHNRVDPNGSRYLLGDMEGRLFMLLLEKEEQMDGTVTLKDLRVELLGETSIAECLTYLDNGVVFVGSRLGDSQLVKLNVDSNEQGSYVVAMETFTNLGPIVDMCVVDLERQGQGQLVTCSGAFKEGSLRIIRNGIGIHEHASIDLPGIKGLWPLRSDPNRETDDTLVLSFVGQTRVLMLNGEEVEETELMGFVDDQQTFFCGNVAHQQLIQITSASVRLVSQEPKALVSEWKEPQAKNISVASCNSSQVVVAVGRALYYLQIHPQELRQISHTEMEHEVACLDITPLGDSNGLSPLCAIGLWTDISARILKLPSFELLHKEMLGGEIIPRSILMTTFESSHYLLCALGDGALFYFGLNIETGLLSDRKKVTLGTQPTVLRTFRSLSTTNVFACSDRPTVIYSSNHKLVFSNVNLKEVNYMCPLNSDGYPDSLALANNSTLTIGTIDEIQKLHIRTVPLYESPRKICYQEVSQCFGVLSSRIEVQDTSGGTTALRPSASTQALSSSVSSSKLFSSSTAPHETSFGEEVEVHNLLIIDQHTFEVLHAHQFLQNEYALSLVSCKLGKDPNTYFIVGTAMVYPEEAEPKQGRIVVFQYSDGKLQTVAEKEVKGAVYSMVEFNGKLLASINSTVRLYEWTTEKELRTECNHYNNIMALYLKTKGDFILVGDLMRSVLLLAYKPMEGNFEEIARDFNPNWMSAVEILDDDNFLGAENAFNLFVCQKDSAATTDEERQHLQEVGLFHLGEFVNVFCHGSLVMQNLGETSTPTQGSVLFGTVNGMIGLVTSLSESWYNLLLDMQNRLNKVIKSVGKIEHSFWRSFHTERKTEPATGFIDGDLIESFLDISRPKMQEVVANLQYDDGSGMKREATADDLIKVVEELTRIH
In short: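 EC50 comes from dose–response of AlphaLISA luminescence (excitation 680, emission 615 nm), normalised between DMSO background and an internal positive control, with concentrations past the hook point dropped. Ternary complex formed by mixing bead-bound biotin-hMCL-1 and His-CRBN/DDB1 (protein solutions 40 and 200 nM) with compound in 2% DMSO, 30 min, 25 °C.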

MCL-1 protein = MCL-1 protein (Homo sapiens, UniProt Q07820); test: DMS 114 cells: MCL-1 protein degradation, Western blot; assay type: cell-based; design: endogenous in cells; conditions: DMS 114 cell line, 6 h treatment, 1 μM compound, vs DMSO
Chain of MCL-1 protein (Q07820 whole entry): as the sequence (Q07820 whole entry) above
Description: The effect of various compounds of the invention on MCL-1 protein degradation in the DMS 114 cell line was investigated, using the degradation assay protocol below.
DMS 114 cells were maintained in Waymouth's MB 752/1 medium, supplemented with penicillin/streptomycin and 10% Fetal Bovine Serum (FBS).
Compound stocks were pre-diluted in DMSO and added directly to the cells growth medium (final DMSO concentration: 0.5%).
DMS 114 cells were detached, collected, centrifuged (250 rcf, 5 min), resuspended in growth medium containing 10% FBS and counted. Cell suspension was then adjusted to 0.25×10^6 cell/ml using growth medium containing 10% FBS. Afterwards, 0.5×10^6 cells were seeded on 6-well plates in 2 mL of medium per well. Plates were then place in the incubator at 37° C. until treatment. Next day, compounds in appropriate concentrations were added to the wells and the plates incubated for additional 6 or 24 hours. DMSO was used as control (final concentration 0.5%).
Following the treatment with the compounds, cells were washed on the plates, lysed with the lysis buffer (2% SDS, 50 mM Tris, pH 8.0, 100 U/ml Pierce Universal Nuclease for Cell Lysis, complete EDTA-free Protease Inhibitor Cocktail) and incubated on ice for 45 min. The amount of protein was determined via BCA assay, and the equal quantity of each sample was loaded on the precast gel for the protein separation. Following the electrophoresis and transfer to the membrane, the membrane was stained with Ponceau (0.1% (w/v) Ponceau in 5% acetic acid). After total protein detection, the stain was washed out using TBST. After the antibody staining for MCL-1, PARP, cleaved Caspase 3 and α-tubulin, the membranes were washed and signals developed.
Densitometric values for MCL-1 were normalized to total protein level (the Ponceau Staining). [%] of protein reduction is calculated in comparison to the cells treated with DMSO, which stand for 0%.
The results for the 6 h treatment with 1 μM compounds are shown in Table 10, using the following labels: • <50% for 0-49% of MCL-1 protein reduction, • ≥50% for 50-74% of MCL-1 protein reduction, • ≥75% for 75-100% of MCL-1 protein reduction.

[2] = system: hiPSC-CM (iCELL Cardiomyocytes); test: Cardiac safety: hiPSC-CM cell viability assay (CTG); assay type: cell-based, human; conditions: for IC50: Homo sapiens, Cardiomyocyte, 336 h, viability, CTG assay, treatment until day 14, read-out: Average pIC50 by molecule hiPSC-CM (converted); for activity in viability assay in cardiomyocytes: as opposed to reference compounds MIK665 and AZD5991
Source text: The effect of various compounds of the invention and a reference compounds AZD5991 and MIK665 on cardiac safety was investigated by the evaluation of viability with CTG assay (Promega; cat #G7572) in iCELL™ Cardiomyocytes from FUJIFILM Cellular Dynamics (Catalog number: 11713).
Cells were thawed, counted using an automated cell counter (TC20, Bio-Rad) and seeded in 96 well plates (Greiner-BioOne; 655098) previously coated with 0.1% gelatin (Sigma-Aldrich; G1890) using Plating Medium (#M1001) following the instructions of the iCELL cardiomyocytes User Guide. Forty ml of Plating Medium was used to equally distribute the cells in four 96 well plates. Cells were then placed in the incubator at 37° C., 5% CO2 and left undisturbed for 48 hours. Compounds were serially diluted in DMSO and then further diluted to final assay concentration using maintenance medium (#M1003). Final DMSO concentration was 0.5%. Forty eight hours after plating, non-adherent cells and debris were washed as described in the User Guide. Plating medium was then replaced with maintenance medium containing diluted compounds or DMSO (as control). Medium was then changed every 2 days with fresh medium containing compounds or DMSO until the end of the treatment. On day 14, only medium without compounds was used immediately before the CTG assay. Luminescence signal was measured using a CLARIOstar Plus Multi-Mode Microplate Reader (574-590 nm).

EC50 [1] | Western blot, % of protein reduction (MCL-1 protein) | Structure (SMILES) | IC50 [2] | activity in viability assay in cardiomyocytes [2]
< 0.1 µM | ≥50% | Cc1nn(C)c(C)c1-c1c(Cl)ccc2c(CCCOc3cccc4ccccc34)c(C(=O)O)n(CCN3CCN(C(=O)COc4cccc5c4C(=O)N(C4CCC(=O)NC4=O)C5=O)CC3)c12 (centres unmarked) [Compound 204, 6-chloro-1-(2-(4-(2-((2-(2,6-dioxopiperidin-3-yl)-1,3-dioxoisoindolin-4-yl)oxy)acetyl)piperazin-1-yl)ethyl)-3-(3-(naphthalen-1-yloxy)propyl)-7-(1,3,5-trimethyl-1H-pyrazol-4-yl)-1H-indole-2-carboxylic acid] | – | –
< 0.1 µM | – | Cc1nn(C)c(C)c1-c1c(F)ccc2c(CCCOc3cccc4cc(F)ccc34)c(C(=O)O)n(CCN3CCN(C(=O)COc4cccc5c4C(=O)N(C4CCC(=O)NC4=O)C5=O)CC3)c12 (centres unmarked) [Compound 215, 1-{2-[4-(2-{[2-(2,6-dioxopiperidin-3-yl)-1,3-dioxo-2,3-dihydro-1H-isoindol-4-yl]oxy}acetyl)piperazin-1-yl]ethyl}-6-fluoro-3-{3-[(6-fluoronaphthalen-1-yl)oxy]propyl}-7-(1,3,5-trimethyl-1H-pyrazol-4-yl)-1H-indole-2-carboxylic acid] | – | –
< 0.1 µM | ≥75% | Cc1nn(C)c(C)c1-c1c(Cl)ccc2c(CCCOc3cccc4cc(F)ccc34)c(C(=O)O)n(CCN3CCN(C(=O)COc4cccc5c4CN(C4CCC(=O)NC4=O)C5=O)CC3)c12 (centres unmarked) [Compound 220, 6-chloro-1-{2-[4-(2-{[2-(2,6-dioxopiperidin-3-yl)-1-oxo-2,3-dihydro-1H-isoindol-4-yl]oxy}acetyl)piperazin-1-yl]ethyl}-3-{3-[(6-fluoronaphthalen-1-yl)oxy]propyl}-7-(1,3,5-trimethyl-1H-pyrazol-4-yl)-1H-indole-2-carboxylic acid] | 10 µM | much lower activity
– | ≥75% | Cc1nn(C)c(C)c1-c1c(Cl)ccc2c(CCCOc3cccc4cc(F)ccc34)c(C(=O)O)n(CCN3CCN(C(=O)Cn4c(C)nc5c(C(=O)NC6CCC(=O)NC6=O)cccc54)CC3)c12 (centres unmarked) [Compound 268, 6-chloro-1-{2-[4-(2-{4-[(2,6-dioxopiperidin-3-yl)carbamoyl]-2-methyl-1H-1,3-benzodiazol-1-yl}acetyl)piperazin-1-yl]ethyl}-3-{3-[(6-fluoronaphthalen-1-yl)oxy]propyl}-7-(1,3,5-trimethyl-1H-pyrazol-4-yl)-1H-indole-2-carboxylic acid] | > 39.8 µM | much lower activity
< 0.1 µM | ≥75% | Cc1nn2c(c1-c1c(Cl)ccc3c(CCCOc4cccc5cc(F)ccc45)c(C(=O)O)n(CCN4CCN(C(=O)COc5cccc6c5CN(C5CCC(=O)NC5=O)C6=O)CC4)c13)COCC2 (centres unmarked) [Compound 346, 6-Chloro-1-(2-(4-(2-((2-(2,6-dioxopiperidin-3-yl)-1-oxoisoindolin-4-yl)oxy)acetyl)piperazin-1-yl)ethyl)-3-(3-((6-fluoronaphthalen-1-yl)oxy)propyl)-7-(2-methyl-6,7-dihydro-4H-pyrazolo[5,1-c][1,4]oxazin-3-yl)-1H-indole-2-carboxylic acid] | 10 µM | much lower activity
